Data as given in patent US11643421B2, “Process for the preparation of tricyclic PI3K inhibitor compounds and methods for using the same for the treatment of cancer” (priority 2015, dated 2023).
Where two headings read alike, the source gives them in different places.

Legend:
[1] = molecular target: CamKIV (Homo sapiens, UniProt Q16566); experiment: biochemical; settings: read-out: % inhib
[2] = molecular target: MYLK2 (skMLCK) (Homo sapiens, UniProt Q9H1R3); experiment: biochemical; settings: read-out: % inhib
MYLK2 (skMLCK), sequence (Q9H1R3 whole entry): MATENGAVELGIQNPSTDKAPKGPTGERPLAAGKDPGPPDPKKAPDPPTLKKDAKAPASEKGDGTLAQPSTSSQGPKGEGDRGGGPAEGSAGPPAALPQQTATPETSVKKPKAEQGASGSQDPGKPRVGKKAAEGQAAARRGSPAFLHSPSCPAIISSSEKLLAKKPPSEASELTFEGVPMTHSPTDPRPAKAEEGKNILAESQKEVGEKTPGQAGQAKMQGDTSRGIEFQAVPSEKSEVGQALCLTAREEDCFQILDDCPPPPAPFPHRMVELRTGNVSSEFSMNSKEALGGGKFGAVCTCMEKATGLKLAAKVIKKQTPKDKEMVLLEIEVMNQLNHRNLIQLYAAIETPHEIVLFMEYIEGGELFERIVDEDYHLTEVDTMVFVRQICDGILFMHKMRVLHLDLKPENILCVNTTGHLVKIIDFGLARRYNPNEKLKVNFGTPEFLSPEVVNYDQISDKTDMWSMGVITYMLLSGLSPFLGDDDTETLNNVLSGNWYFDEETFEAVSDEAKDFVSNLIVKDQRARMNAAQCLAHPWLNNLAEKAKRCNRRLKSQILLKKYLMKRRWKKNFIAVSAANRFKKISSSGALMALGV

[3] = Phase I dose-escalation study, plasma pharmacokinetics; assay type: in vivo, human; settings: for concentration at 15 day: read-out: Cmin (μM), Mean; for AUC(0-t): read-out: AUC0-24 (μM*hr), Mean; for AUC(0-inf): read-out: AUCinf (μM*hr), Mean
Method: Plasma samples for pharmacokinetic (“PK”) analysis were collected on day 1 and day 8 or day 15 of cycle 1. Fluorodeoxyglucose positron emission tomography (“FDG-PET”) was performed at baseline and on-treatment.
Dosing times may have been adjusted to accommodate for time shifts from the home administration schedule (e.g., for clinic visits with PK sampling or traveling), but times were to be adjusted by no more than 4 hours at a time.
For administration under fasted conditions, patients fasted overnight for at least 8 hours before dosing and 2 hours after dosing.
For Cohorts 1-6 (2-30 mg), the single dose on Cycle 1, Day 1 was followed by a 7 day washout-period, after which continuous once daily dosing, for 28 consecutive days, was started on Day 8. Blood samples for Cohorts 1-6 were collected on Day 15 for PK analysis.
All plasma concentration-time data collected in Cycle 1 were analyzed using WinNonlin® (Version 6.4, Pharsight Corp, Mountain View, Calif.) to estimate PK parameters, which included but were not limited to AUC0-last (where AUC refers to the area under the concentration-time curve) and/or AUCinf, Cmax, Cmin, tmax, half-life, CL/F, and accumulation ratio. Estimates for each PK parameter and summary statistics (mean, standard deviation, coefficient of variation, median, minimum, and maximum) were tabulated by dose level and schedule. Nominal time data were used in the analysis, and the linear up/log down trapezoidal method was used for calculating AUC.

[4] = system: P-gp and BCRP; experiment: Transport assays in cell monolayers, overall; assay type: in vitro ADME
Method: MDR1-MDCKI cells were licensed from the NCI (National Cancer Institute, Bethesda, Md.) and Bcrp1-MDCKII, BCRP-MDCKII and Mdr1a-LLC-PK1 cells were obtained from the Netherlands Cancer Institute (Amsterdam. The Netherlands). […] The compound was dissolved in transport buffer consisting of Hank's balanced salt solution (HBSS) with 10 mM HEPES (Invitrogen Corporation, Grand Island, N.Y.). Lucifer Yellow (Sigma-Aldrich, St. Louis, Mo.) was used as the paracellular and monolayer integrity marker. […] The efflux ratio (ER) was calculated (Papp, B-A/Papp, A-B).

[5] = molecular target: InsR (Homo sapiens, UniProt P06213); experiment: biochemical; settings: read-out: % inhib
InsR, sequence (P06213 28-1382, species assumed): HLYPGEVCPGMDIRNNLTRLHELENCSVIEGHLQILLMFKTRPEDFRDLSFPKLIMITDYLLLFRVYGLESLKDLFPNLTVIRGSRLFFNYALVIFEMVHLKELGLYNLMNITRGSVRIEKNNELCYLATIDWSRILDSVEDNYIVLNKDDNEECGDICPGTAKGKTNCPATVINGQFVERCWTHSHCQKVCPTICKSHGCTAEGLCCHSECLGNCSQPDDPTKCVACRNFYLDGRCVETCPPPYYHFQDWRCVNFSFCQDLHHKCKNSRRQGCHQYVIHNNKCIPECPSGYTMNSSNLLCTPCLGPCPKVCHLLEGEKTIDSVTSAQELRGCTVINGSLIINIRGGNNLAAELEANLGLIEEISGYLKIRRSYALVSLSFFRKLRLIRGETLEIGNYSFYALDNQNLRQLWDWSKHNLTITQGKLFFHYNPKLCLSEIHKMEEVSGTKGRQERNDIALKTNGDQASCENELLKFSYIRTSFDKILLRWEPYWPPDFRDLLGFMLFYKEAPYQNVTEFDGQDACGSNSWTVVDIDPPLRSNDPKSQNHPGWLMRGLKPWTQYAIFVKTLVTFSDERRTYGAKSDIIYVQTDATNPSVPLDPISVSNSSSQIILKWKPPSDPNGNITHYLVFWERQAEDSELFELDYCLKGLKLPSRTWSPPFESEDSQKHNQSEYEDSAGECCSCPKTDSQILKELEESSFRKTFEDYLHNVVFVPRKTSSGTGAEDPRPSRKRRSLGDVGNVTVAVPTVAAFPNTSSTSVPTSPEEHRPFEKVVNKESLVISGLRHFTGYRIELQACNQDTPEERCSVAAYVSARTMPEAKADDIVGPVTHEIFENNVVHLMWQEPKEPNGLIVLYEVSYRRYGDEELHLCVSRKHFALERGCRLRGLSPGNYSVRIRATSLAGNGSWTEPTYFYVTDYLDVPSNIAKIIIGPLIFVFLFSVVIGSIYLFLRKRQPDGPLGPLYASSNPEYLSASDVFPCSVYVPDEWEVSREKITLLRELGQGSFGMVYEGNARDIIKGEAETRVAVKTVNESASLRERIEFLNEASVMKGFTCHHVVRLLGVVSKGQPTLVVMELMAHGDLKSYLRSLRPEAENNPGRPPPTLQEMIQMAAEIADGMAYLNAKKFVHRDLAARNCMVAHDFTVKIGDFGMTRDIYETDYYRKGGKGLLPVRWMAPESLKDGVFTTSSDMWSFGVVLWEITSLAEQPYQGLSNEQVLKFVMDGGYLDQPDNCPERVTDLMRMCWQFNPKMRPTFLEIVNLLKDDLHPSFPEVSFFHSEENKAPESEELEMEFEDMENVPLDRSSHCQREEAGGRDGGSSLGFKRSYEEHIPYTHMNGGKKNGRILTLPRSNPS

[6] = system: p4EBP1; experiment: PI3K pathway modulation in GS2 tumors, western blot; assay type: in vivo, mice; settings: 15 mg/kg PO daily 4 weeks
[7] = human, plasma, oral, 2 mg once daily, multiple doses, Cycle 1 Day 15
[8] = human, plasma, oral, 4 mg once daily, multiple doses, Cycle 1 Day 15
[9] = human, plasma, oral, 8 mg once daily, multiple doses, Cycle 1 Day 15
[10] = human, plasma, oral, 15 mg once daily, multiple doses, Cycle 1 Day 15
[11] = human, plasma, oral, 20 mg once daily, multiple doses, Cycle 1 Day 15
[12] = human, plasma, oral, 45 mg once daily, multiple doses, Cycle 1 Day 8
[13] = human, plasma, oral, 65 mg once daily, multiple doses, Cycle 1 Day 8
[14] = human, plasma, 2 mg single oral dose, Cycle 1 Day 1
[15] = human, plasma, 4 mg single oral dose, Cycle 1 Day 1
[16] = human, plasma, 8 mg single oral dose, Cycle 1 Day 1
[17] = human, plasma, 15 mg single oral dose, Cycle 1 Day 1
[18] = human, plasma, 20 mg single oral dose, Cycle 1 Day 1
[19] = human, plasma, 30 mg single oral dose, Cycle 1 Day 1
[20] = human, plasma, 45 mg single oral dose, Cycle 1 Day 1
[21] = human, plasma, 65 mg single oral dose, Cycle 1 Day 1

CamKIV, sequence (Q16566 whole entry): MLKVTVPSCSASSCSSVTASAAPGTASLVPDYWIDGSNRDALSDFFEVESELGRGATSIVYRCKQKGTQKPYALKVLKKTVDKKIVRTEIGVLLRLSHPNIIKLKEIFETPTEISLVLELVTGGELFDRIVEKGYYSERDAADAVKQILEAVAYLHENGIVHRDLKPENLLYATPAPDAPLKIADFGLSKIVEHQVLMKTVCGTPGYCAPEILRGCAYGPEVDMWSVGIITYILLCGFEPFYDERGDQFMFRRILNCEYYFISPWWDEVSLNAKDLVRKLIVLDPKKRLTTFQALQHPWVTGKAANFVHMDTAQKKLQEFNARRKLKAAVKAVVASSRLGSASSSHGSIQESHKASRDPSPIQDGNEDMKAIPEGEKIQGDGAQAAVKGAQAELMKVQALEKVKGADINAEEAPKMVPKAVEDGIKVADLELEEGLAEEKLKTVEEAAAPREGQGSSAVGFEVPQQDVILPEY

Structure (SMILES): CC1(C)OCCn2c1nc1c(N3CCOCC3)nc(-c3cnc(N)nc3)nc12 [GDC-0084, 5-(6,6-dimethyl-4-morpholino-8,9-dihydro-6H-[1,4]oxazino[3,4-e]purin-2-yl)pyrimidin-2-amine]
- inhibition at 1 µM [1]: 0.2%
- inhibition at 1 µM [2]: 3%
- concentration at 15 day ([3]; 4 mg once daily, multiple doses, Cycle 1 Day 15): 0.0207 µM
- CL/F (L/hr), Mean ([3]; 4 mg single oral dose, Cycle 1 Day 1): 4.87 L/h
- concentration at 15 day ([3]; 8 mg once daily, multiple doses, Cycle 1 Day 15): 0.0301 µM
- CL/F (L/hr), Mean ([3]; 8 mg single oral dose, Cycle 1 Day 1): 12.4 L/h
- concentration at 15 day ([3]; 15 mg once daily, multiple doses, Cycle 1 Day 15): 0.0581 µM
- concentration at 15 day ([3]; 20 mg once daily, multiple doses, Cycle 1 Day 15): 0.0635 µM
- CL/F (L/hr), Mean ([3]; 20 mg single oral dose, Cycle 1 Day 1): 7.92 L/h
- concentration at 15 day ([3]; 30 mg once daily, multiple doses, Cycle 1 Day 15): 0.155 µM
- CL/F (L/hr), Mean ([3]; 30 mg single oral dose, Cycle 1 Day 1): 8.22 L/h
- concentration at 15 day ([3]; 45 mg once daily, multiple doses, Cycle 1 Day 8): 0.206 µM
- concentration at 15 day ([3]; 65 mg once daily, multiple doses, Cycle 1 Day 8): 0.271 µM
- half-life ([3]; human, plasma, oral, across Cohorts 1-6 (2 to 30 mg), single dose, read-out: apparent terminal phase t1/2 (converted)): ~18.7 h
- Cmax [3, 7]: 0.0331 µM
- AUC(0-t) [3, 7]: 0.346 µM·h
- concentration at 15 day [3, 7]: 0.00877 µM
- Tmax ([3]; human, plasma, oral, 2 mg once daily, multiple doses, Cycle 1 Day 15, read-out: Tmax (hr), Median): 2 h
- Cmax [3, 8]: 0.593 µM
- AUC(0-t) [3, 8]: 0.833 µM·h
- Tmax ([3]; human, plasma, oral, 4 mg once daily, multiple doses, Cycle 1 Day 15, read-out: Tmax (hr), Median): 2 h
- Cmax [3, 9]: 0.0883 µM
- AUC(0-t) [3, 9]: 1.16 µM·h
- Tmax ([3]; human, plasma, oral, 8 mg once daily, multiple doses, Cycle 1 Day 15, read-out: Tmax (hr), Median): 2.5 h
- Cmax [3, 10]: 0.156 µM
- AUC(0-t) [3, 10]: 2.34 µM·h
- Tmax ([3]; human, plasma, oral, 15 mg once daily, multiple doses, Cycle 1 Day 15, read-out: Tmax (hr), Median): 3 h
- Cmax [3, 11]: 0.23 µM
- AUC(0-t) [3, 11]: 2.87 µM·h
- Tmax ([3]; human, plasma, oral, 20 mg once daily, multiple doses, Cycle 1 Day 15, read-out: Tmax (hr), Median): 2 h
- Cmax ([3]; human, plasma, oral, 30 mg once daily, multiple doses, Cycle 1 Day 15): 0.332 µM
- AUC(0-t) ([3]; human, plasma, oral, 30 mg once daily, multiple doses, Cycle 1 Day 15, n = 5): 5.67 µM·h
- Tmax ([3]; human, plasma, oral, 30 mg once daily, multiple doses, Cycle 1 Day 15, read-out: Tmax (hr), Median): 2 h
- Cmax [3, 12]: 0.544 µM
- AUC(0-t) [3, 12]: 8.06 µM·h
- Tmax ([3]; human, plasma, oral, 45 mg once daily, multiple doses, Cycle 1 Day 8, read-out: Tmax (hr), Median): 3.5 h
- Cmax [3, 13]: 0.58 µM
- AUC(0-t) [3, 13]: 9.01 µM·h
- Tmax ([3]; human, plasma, oral, 65 mg once daily, multiple doses, Cycle 1 Day 8, read-out: Tmax (hr), Median): 3 h
- half-life ([3]; human, plasma, po, 2 mg, 2 mg single oral dose, Cycle 1 Day 1, read-out: T1/2 (hr), Mean (converted)): 16.9 h
- half-life ([3]; human, plasma, po, 4 mg, 4 mg single oral dose, Cycle 1 Day 1, read-out: T1/2 (hr), Mean (converted)): 21.8 h
- half-life ([3]; human, plasma, po, 8 mg, 8 mg single oral dose, Cycle 1 Day 1, read-out: T1/2 (hr), Mean (converted)): 18.2 h
- half-life ([3]; human, plasma, po, 15 mg, 15 mg single oral dose, Cycle 1 Day 1, read-out: T1/2 (hr), Mean (converted)): 18.1 h
- half-life ([3]; human, plasma, po, 20 mg, 20 mg single oral dose, Cycle 1 Day 1, read-out: T1/2 (hr), Mean (converted)): 14.8 h
- half-life ([3]; human, plasma, po, 30 mg, 30 mg single oral dose, Cycle 1 Day 1, read-out: T1/2 (hr), Mean (converted)): 22 h
- AUC(0-t) [3, 14]: 0.21 µM·h
- AUC(0-inf) [3, 14]: 0.365 µM·h
- Tmax ([3]; human, plasma, 2 mg single oral dose, Cycle 1 Day 1, read-out: Tmax (hr), Median): 2 h
- Cmax [3, 15]: 0.0359 µM
- AUC(0-t) [3, 15]: 0.435 µM·h
- AUC(0-inf) [3, 15]: 0.833 µM·h
- Tmax ([3]; human, plasma, 4 mg single oral dose, Cycle 1 Day 1, read-out: Tmax (hr), Median): 3 h
- Cmax [3, 16]: 0.0452 µM
- AUC(0-t) [3, 16]: 0.509 µM·h
- AUC(0-inf) [3, 16]: 0.974 µM·h
- Tmax ([3]; human, plasma, 8 mg single oral dose, Cycle 1 Day 1, read-out: Tmax (hr), Median): 3 h
- Cmax [3, 17]: 0.0912 µM
- AUC(0-t) [3, 17]: 1.09 µM·h
- AUC(0-inf) [3, 17]: 1.97 µM·h
- Tmax ([3]; human, plasma, 15 mg single oral dose, Cycle 1 Day 1, read-out: Tmax (hr), Median): 2 h
- Cmax [3, 18]: 0.159 µM
- AUC(0-t) [3, 18]: 1.9 µM·h
- AUC(0-inf) [3, 18]: 2.75 µM·h
- Tmax ([3]; human, plasma, 20 mg single oral dose, Cycle 1 Day 1, read-out: Tmax (hr), Median): 2 h
- Cmax [3, 19]: 0.174 µM
- AUC(0-t) [3, 19]: 2.42 µM·h
- AUC(0-inf) [3, 19]: 5.33 µM·h
- Tmax ([3]; human, plasma, 30 mg single oral dose, Cycle 1 Day 1, read-out: Tmax (hr), Median): 2 h
- Cmax [3, 20]: 0.234 µM
- AUC(0-t) [3, 20]: 3.12 µM·h
- Tmax ([3]; human, plasma, 45 mg single oral dose, Cycle 1 Day 1, read-out: Tmax (hr), Median): 3 h
- Cmax [3, 21]: 0.255 µM
- AUC(0-t) [3, 21]: 4.06 µM·h
- Tmax ([3]; human, plasma, 65 mg single oral dose, Cycle 1 Day 1, read-out: Tmax (hr), Median): 2.5 h
- Tmax ([3]; human, plasma, single oral dose, all cohorts, read-out: median Tmax): ~2 h
- dose proportionality of Cmax and AUC0-24 ([3]; single and multiple doses, 2 mg to 65 mg once daily): approximately linear and dose proportional increase in Cmax and AUC0-24
- substrate of efflux transporters ([4]; efflux ratios in MDCK or LLC-PK1 transfected cells): poor substrate of the efflux transporters P-gp and BCRP
- apparent permeability (Papp), in words ([4]; transfected MDCK and LLC-PK1 cells): high and comparable to that of metoprolol
- inhibition at 1 µM [5]: 6%
- Suppression of p4EBP1 in GS2 tumors ([6]; 2 hours after final administration): 43%
- p4EBP1 level in GS2 tumors ([6]; 8 hours post-dose): back to baseline levels
